We go through 9 compounds from ChEMBL document CHEMBL1127181, “Novel sigma receptor ligands 1” (Bioorg Med Chem Lett, 1993).

A word on the Ki: it is a measure of affinity in units of concentration, obtained from inhibition or displacement. High values mean a looser hold on the target, low ones a stronger hold on the target.

A value given as a limit tells only on which side of the number the result lay.

The target in this experiment is Glutamate [NMDA] receptor. The experiment is described as follows: Binding affinity towards PCP receptor in guinea pig brain membrane using radiolabeled ligand [3H]TCP (1-[1-(2-thienyl)cyclohexyl]piperidine) was determined. In kind it is cell membranes, Cavia porcellus.
With `O=C1C(c2ccc(F)cc2)=COC12CCN(Cc1ccccc1)CC2`, the Ki is more than 10 µM.
As for `CCN(CC)CCCC1(C)OC=C(c2ccccc2)C1=O` (centres undefined), the figure is 100 µM; as for `O=C1C=C(c2ccccc2)OC12CCN(Cc1ccccc1)CC2`, 4.4 µM.
Consider `O=C1C(c2ccccc2)=COC12CCN(CC1CCCCC1)CC2`, for which the Ki was more than 10 µM.
In turn, `O=C1C(c2ccc(F)cc2)=COC12CCN(CC1CCCCC1)CC2` yielded a Ki of 12 µM.
The compound `O=C1C=C(c2ccc(F)cc2)OC12CCN(CCc1ccccc1)CC2` registered a Ki of 8.3 µM.
In turn, `O=C1C(c2ccc(F)cc2)=COC12CCN(Cc1ccc(F)cc1)CC2` had a Ki of 2.03 µM.
For the compound `O=C1C(c2ccc(F)cc2)COC12CCN(Cc1ccccc1)CC2` (centres undefined), the affinity corresponds to a Ki of 2.23 µM.
`O=C1C=C(c2ccccc2)OC12CCN(CCc1ccccc1)CC2` yielded a Ki of more than 10 µM.
